According to patent US20240226115A1, “AXL INHIBITOR COMPOUNDS” (ARCUS BIOSCIENCES, INC., priority 2021, published 2024):

Key:
[1] = molecular target: T1, recombinant human TYRO3 (Homo sapiens, UniProt Q06418); assay: HTRF KinEASE-TK biochemical potency, TYRO3; settings: 1 nM TYRO3, 700 μM ATP
T1 construct: purchased Invitrogen
T1 sequence (Q06418 41-890): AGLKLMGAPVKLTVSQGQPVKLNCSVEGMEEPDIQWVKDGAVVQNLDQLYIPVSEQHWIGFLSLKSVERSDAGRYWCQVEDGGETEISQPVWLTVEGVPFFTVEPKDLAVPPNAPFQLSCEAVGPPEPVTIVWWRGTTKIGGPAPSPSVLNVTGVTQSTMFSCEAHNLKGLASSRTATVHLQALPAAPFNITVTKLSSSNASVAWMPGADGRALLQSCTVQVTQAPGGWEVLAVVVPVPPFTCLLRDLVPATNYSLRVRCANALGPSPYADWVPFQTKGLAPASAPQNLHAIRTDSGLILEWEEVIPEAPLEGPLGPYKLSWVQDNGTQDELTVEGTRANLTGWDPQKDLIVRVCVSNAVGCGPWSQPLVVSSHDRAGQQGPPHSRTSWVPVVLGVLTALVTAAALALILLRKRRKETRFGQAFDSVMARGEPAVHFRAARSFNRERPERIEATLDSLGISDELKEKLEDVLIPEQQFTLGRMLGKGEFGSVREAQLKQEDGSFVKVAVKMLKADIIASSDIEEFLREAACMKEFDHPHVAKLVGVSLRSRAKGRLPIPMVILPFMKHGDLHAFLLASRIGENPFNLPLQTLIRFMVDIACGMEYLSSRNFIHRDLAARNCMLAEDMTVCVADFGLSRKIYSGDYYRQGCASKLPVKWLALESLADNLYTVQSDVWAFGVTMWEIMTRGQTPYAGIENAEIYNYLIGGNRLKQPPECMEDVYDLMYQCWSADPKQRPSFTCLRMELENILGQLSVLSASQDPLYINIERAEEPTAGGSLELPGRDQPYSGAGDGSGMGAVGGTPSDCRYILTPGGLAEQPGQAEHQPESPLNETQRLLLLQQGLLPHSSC
How it was run: (§1)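 Enzyme preincubated with compound 1 h at RT; final 5 nM AXL or 1 nM TYRO3/MER, 800 nM TK substrate-biotin, 700 μM ATP, HEPES pH 7.4, MgCl2, 1% DMSO, 2 h at RT. HTRF 665/620 ratio read after streptavidin-XL665/cryptate antibody detection; percent activity relative to DMSO and pre-stopped controls.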

[2] = molecular target: T2, Axl (Homo sapiens, UniProt P30530); assay: HTRF KinEASE-TK biochemical potency, AXL; design: purchased Invitrogen; settings: 5 nM AXL, 700 μM ATP
T2 sequence (P30530 26-894): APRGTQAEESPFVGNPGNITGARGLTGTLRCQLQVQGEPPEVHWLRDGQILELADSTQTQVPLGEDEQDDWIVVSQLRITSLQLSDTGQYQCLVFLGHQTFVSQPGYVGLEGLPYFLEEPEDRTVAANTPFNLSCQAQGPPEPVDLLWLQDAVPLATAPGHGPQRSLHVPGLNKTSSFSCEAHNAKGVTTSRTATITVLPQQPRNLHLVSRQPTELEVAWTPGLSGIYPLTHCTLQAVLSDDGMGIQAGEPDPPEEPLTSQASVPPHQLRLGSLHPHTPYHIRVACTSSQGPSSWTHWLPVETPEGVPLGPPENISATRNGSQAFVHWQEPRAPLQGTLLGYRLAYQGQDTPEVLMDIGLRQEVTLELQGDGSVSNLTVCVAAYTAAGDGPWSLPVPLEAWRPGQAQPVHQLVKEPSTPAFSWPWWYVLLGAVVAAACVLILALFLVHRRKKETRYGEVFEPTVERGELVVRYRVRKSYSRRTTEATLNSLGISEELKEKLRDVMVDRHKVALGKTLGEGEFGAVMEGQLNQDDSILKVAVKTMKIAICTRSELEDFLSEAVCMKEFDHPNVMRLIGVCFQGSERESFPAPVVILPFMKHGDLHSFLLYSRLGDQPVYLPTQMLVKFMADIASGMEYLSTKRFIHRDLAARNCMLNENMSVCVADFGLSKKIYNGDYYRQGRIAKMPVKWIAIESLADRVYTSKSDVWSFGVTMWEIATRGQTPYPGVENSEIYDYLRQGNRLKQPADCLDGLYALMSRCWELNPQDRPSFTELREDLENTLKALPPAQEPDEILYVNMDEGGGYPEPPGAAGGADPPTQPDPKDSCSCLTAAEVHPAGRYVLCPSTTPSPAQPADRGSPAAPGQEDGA
How it was run: as §1

Row | SMILES | IC50 [1] | IC50 [2]
1 | O=C1NCCOc2cc(-c3n[nH]c4ncc(-c5ccc6c(c5)CCC(N5CC[C@@H](O)C5)CC6)cc34)ccc21 (stereo partly drawn) [Example 51, 8-(5-(7-((R)-3-Hydroxypyrrolidin-1-yl)-6,7,8,9-tetrahydro-5H-benzo[7]annulen-2-yl)-1H-pyrazolo[3,4-b]pyridin-3-yl)-3,4-dihydrobenzo[f][1,4]oxazepin-5(2H)-one] | < 100 nM | < 100 nM
2 | C[C@@H]1CCCN1C1(C)CCc2ccc(-c3cnc4[nH]nc(-c5ccc6c(c5)OCCNC6=O)c4c3)cc2CC1 (stereo partly drawn) [Example 23, 8-(5-{7-Methyl-7-[(2R)-2-methylpyrrolidin-1-yl]-6,7,8,9-tetrahydro-5H-benzo[7]annulen-2-yl}-1H-pyrazolo[3,4-b]pyridin-3-yl)-2,3,4,5-tetrahydro-1,4-benzoxazepin-5-one] | < 100 nM | < 100 nM
3 | O=C1NCCOc2cc(-c3n[nH]c4ncc(-c5ccc6c(c5)CCC(N5CCCC5)C6)cc34)ccc21 (stereo not drawn) [Example 2, 8-{5-[6-(Pyrrolidin-1-yl)-5,6,7,8-tetrahydronaphthalen-2-yl]-1H-pyrazolo[3,4-b]pyridin-3-yl}-2,3,4,5-tetrahydro-1,4-benzoxazepin-5-one] | < 100 nM | < 100 nM
4 | C[C@@H]1CCCN1C1CCc2ccc(-c3cnc4[nH]nc(-c5ccc6c(c5)OCCC6(C)O)c4c3)cc2CC1 (stereo partly drawn) [Example 29, 4-Methyl-7-(5-{7-[(2R)-2-Methylpyrrolidin-1-yl]-6,7,8,9-tetrahydro-5H-benzo[7]annulen-2-yl}-1H-pyrazolo[3,4-b]pyridin-3-yl)-3,4-dihydro-2H-1-benzopyran-4-ol] | < 100 nM | < 100 nM
5 | O=C1NCCOc2cc(-c3n[nH]c4ncc(-c5ccc6c(c5)CCN(C5CCCC5)C6)cc34)ccc21 [Example 9, 8-(5-(2-Cyclopentyl-1,2,3,4-tetrahydroisoquinolin-6-yl)-1H-pyrazolo[3,4-b]pyridin-3-yl)-3,4-dihydrobenzo[f][1,4]oxazepin-5(2H)-one] | < 100 nM | < 100 nM
6 | O=C1NCCOc2cc(-c3n[nH]c4ncc(-c5ccc6c(c5)CC[C@H](N5CCCC5)CC6)cc34)ccc21 (single isomer, unassigned) [Example 56] | < 100 nM | < 100 nM
7 | C[C@@H]1CCCN1C1CCc2ccc(-c3cnc4[nH]nc(-c5cc(F)c6c(c5)OCCNC6=O)c4c3)cc2CC1 (stereo partly drawn) [Example 6, 6-Fluoro-8-(5-{7-[(2R)-2-methylpyrrolidin-1-yl]-6,7,8,9-tetrahydro-5H-benzo[7]annulen-2-yl}-1H-pyrazolo[3,4-b]pyridin-3-yl)-2,3,4,5-tetrahydro-1,4-benzoxazepin-5-one] | < 100 nM | < 100 nM
8 | CC1(N2CCCC2)CCc2ccc(-c3cnc4[nH]nc(-c5ccc6c(c5)OCCNC6=O)c4c3)cc2CC1 (stereo not drawn) [Example 22, 8-{5-[7-Methyl-7-(pyrrolidin-1-yl)-6,7,8,9-tetrahydro-5H-benzo[7]annulen-2-yl]-1H-pyrazolo[3,4-b]pyridin-3-yl}-2,3,4,5-tetrahydro-1,4-benzoxazepin-5-one] | < 100 nM | < 100 nM
9 | O=C1NCCOc2cc(-c3n[nH]c4ncc(-c5ccc6c(c5)CCC(N[C@@H]5CCOC5)C6)cc34)ccc21 (stereo partly drawn) [Example 5, 8-[5-(6-{[(3R)—Oxolan-3-yl]amino}-5,6,7,8-tetrahydronaphthalen-2-yl)-1H-pyrazolo[3,4-b]pyridin-3-yl]-2,3,4,5-tetrahydro-1,4-benzoxazepin-5-one] | < 100 nM | < 100 nM
10 | O=C1NCCOc2cc(-c3n[nH]c4ncc(-c5ccc6c(c5)CCC(N5CCOCC5)CC6)cc34)ccc21 (stereo not drawn) [Example 47, 8-{5-[7-(Morpholin-4-yl)-6,7,8,9-tetrahydro-5H-benzo[7]annulen-2-yl]-1H-pyrazolo[3,4-b]pyridin-3-yl}-2,3,4,5-tetrahydro-1,4-benzoxazepin-5-one] | < 100 nM | < 100 nM
11 | O=C1NCCOc2cc(-c3n[nH]c4ncc(-c5ccc6c(c5)CCNC6)cc34)ccc21 [Example 54, 8-(5-(1,2,3,4-Tetrahydroisoquinolin-6-yl)-1H-pyrazolo[3,4-b]pyridin-3-yl)-3,4-dihydrobenzo[f][1,4]oxazepin-5(2H)-one] | < 100 nM | < 100 nM
12 | C[C@@H]1CCCN1C1CCc2ccc(-c3cnc4[nH]nc(-c5ccc6c(c5)OCCNS6(=O)=O)c4c3)cc2CC1 (stereo partly drawn) [Example 66, 7-(5-{7-[(2R)-2-Methylpyrrolidin-1-yl]-6,7,8,9-tetrahydro-5H-benzo[7]annulen-2-yl}-1H-pyrazolo[3,4-b]pyridin-3-yl)-3,4-dihydro-2H-5,12,2-benzoxathiazepine-1,1-dione] | 100 to 1000 nM | < 100 nM
13 | C[C@@H]1CCCN1C1CCc2cc(-c3cnc4[nH]nc(-c5ccc6c(c5)OCCNC6=O)c4c3)cc(Cl)c2CC1 (stereo partly drawn) [Example 65, 8-(5-{4-Chloro-7-[(2R)-2-methylpyrrolidin-1-yl]-6,7,8,9-tetrahydro-5H-benzo[7]annulen-2-yl}-1H-pyrazolo[3,4-b]pyridin-3-yl)-2,3,4,5-tetrahydro-1,4-benzoxazepin-5-one] | < 100 nM | < 100 nM
14 | O=C1NCCOc2cc(-c3n[nH]c4ncc(-c5ccc6c(c5)CCN(C5CCCC5)CC6)cc34)ccc21 [Example 7, 8-[5-(3-Cyclopentyl-2,3,4,5-tetrahydro-1H-3-benzazepin-7-yl)-1H-pyrazolo[3,4-b]pyridin-3-yl]-2,3,4,5-tetrahydro-1,4-benzoxazepin-5-one] | < 100 nM | < 100 nM
15 | O=C1NCCOc2cc(-c3n[nH]c4ncc(-c5ccc6c(c5)CCC(N[C@H]5CCOC5)CC6)cc34)ccc21 (stereo partly drawn) [Example 45, 8-[5-(7-{[(3S)—Oxolan-3-yl]amino}-6,7,8,9-tetrahydro-5H-benzo[7]annulen-2-yl)-1H-pyrazolo[3,4-b]pyridin-3-yl]-2,3,4,5-tetrahydro-1,4-benzoxazepin-5-one] | < 100 nM | < 100 nM
16 | O=C1NCCOc2cc(-c3n[nH]c4ncc(-c5ccc6c(c5)CCC(N5CCNCC5)CC6)cc34)ccc21 (stereo not drawn) [Example 48, 8-{5-[7-(Piperazin-1-yl)-6,7,8,9-tetrahydro-5H-benzo[7]annulen-2-yl]-1H-pyrazolo[3,4-b]pyridin-3-yl}-2,3,4,5-tetrahydro-1,4-benzoxazepin-5-one] | < 100 nM | < 100 nM
17 | Cc1cc2c(cc1-c1n[nH]c3ncc(-c4ccc5c(c4)CCC(N4CCC[C@H]4C)CC5)cc13)OCCNC2=O (stereo partly drawn) [Example 40, 7-Methyl-8-(5-{7-[(2R)-2-methylpyrrolidin-1-yl]-6,7,8,9-tetrahydro-5H-benzo[7]annulen-2-yl}-1H-pyrazolo[3,4-b]pyridin-3-yl)-2,3,4,5-tetrahydro-1,4-benzoxazepin-5-one] | < 100 nM | < 100 nM
18 | CC1(O)CCOc2cc(-c3n[nH]c4ncc(-c5ccc6c(c5)CCN(C5CCCC5)CC6)cc34)ccc21 (stereo not drawn) [Example 26, 7-[5-(3-Cyclopentyl-2,3,4,5-tetrahydro-1H-3-benzazepin-7-yl)-1H-pyrazolo[3,4-b]pyridin-3-yl]-4-methyl-3,4-dihydro-2H-1-benzopyran-4-ol] | < 100 nM | < 100 nM
